Results published in ChEMBL document CHEMBL4725449, “Brain Penetrable Inhibitors of Ceramide Galactosyltransferase for the Treatment of Lysosomal Storage Disorders” (ACS Med Chem Lett, 2020).

Legend:
[1] = molecular target: T1, UDP-glucuronosyltransferase 2B17 (Homo sapiens, UniProt O75795); assay: Inhibition of UGT2B17 (unknown origin); type: ADME
T1 sequence (O75795 whole entry): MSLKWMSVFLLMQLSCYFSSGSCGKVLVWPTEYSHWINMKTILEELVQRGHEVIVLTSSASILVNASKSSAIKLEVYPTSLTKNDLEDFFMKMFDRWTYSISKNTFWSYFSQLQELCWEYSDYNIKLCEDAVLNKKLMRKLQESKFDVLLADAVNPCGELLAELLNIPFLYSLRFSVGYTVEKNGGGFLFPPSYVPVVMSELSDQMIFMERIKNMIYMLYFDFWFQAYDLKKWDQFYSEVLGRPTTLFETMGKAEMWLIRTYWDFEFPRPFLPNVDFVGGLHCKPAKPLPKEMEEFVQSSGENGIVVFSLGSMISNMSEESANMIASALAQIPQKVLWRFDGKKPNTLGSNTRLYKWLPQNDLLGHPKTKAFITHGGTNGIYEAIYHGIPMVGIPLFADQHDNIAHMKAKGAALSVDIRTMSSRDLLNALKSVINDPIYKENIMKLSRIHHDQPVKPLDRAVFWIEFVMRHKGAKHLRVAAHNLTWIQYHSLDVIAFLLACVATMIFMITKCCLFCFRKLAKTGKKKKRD

[2] = molecular target: T2, 2-hydroxyacylsphingosine 1-beta-galactosyltransferase (Homo sapiens, UniProt Q16880); assay: Inhibition of UGT8 in human OE19 cells assessed as redcution in GalCer accumulation measured after 72 hrs by LC-MS/MS analysis; type: cell-based
T2 sequence (Q16880 whole entry): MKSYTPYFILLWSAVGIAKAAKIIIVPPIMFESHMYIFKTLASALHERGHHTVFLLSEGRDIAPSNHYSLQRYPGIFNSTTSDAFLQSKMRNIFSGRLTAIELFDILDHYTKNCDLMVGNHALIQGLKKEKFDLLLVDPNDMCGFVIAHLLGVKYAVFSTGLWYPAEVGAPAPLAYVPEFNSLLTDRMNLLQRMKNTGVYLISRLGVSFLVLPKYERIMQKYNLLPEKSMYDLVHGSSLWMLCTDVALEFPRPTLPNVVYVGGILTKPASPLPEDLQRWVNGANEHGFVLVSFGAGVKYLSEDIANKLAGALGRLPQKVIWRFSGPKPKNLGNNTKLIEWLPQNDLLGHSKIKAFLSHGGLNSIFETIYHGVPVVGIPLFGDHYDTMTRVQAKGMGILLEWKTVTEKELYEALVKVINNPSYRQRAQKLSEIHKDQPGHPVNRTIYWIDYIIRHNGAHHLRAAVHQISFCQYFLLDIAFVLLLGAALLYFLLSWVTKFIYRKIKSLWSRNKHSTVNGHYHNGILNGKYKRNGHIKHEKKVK

[3] = molecular target: T3, UDP-glucuronosyltransferase 1A6 (Homo sapiens, UniProt P19224); assay: Inhibition of UGT1A6 (unknown origin); type: ADME
T3 sequence (P19224 whole entry): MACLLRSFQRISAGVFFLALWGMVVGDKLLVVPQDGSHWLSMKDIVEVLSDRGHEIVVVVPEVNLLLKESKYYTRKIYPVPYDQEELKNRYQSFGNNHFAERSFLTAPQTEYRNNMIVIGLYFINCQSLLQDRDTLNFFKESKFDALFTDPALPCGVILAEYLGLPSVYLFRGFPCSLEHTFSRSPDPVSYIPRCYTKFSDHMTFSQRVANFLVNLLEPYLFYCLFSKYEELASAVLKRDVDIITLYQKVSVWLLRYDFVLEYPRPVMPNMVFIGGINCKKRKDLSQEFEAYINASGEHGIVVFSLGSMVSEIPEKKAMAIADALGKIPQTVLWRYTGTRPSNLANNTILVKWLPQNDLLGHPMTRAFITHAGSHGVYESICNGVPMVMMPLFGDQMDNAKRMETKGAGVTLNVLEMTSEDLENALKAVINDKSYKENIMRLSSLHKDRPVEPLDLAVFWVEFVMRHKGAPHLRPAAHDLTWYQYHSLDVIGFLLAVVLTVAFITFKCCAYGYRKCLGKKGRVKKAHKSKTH

[4] = Distribution coefficient, log D of the compound; type: physicochemical; conditions: octanol/water
[5] = Ratio of drug concentration in brain to plasma in C57BL/6 mouse measured at 1 hr; type: ADME, organism-based; conditions: read-out: BPR
[6] = Tmax in Sprague-Dawley rat at 3 mg/kg, po; type: ADME, organism-based; conditions: in vivo
[7] = Clearance in Beagle dog at 1 mg/kg, iv; type: ADME, organism-based, Canis lupus familiaris; conditions: in vivo
[8] = Tmax in Beagle dog at 3 mg/kg, po; type: ADME, organism-based, Canis lupus familiaris; conditions: in vivo
[9] = Oral bioavailability in Beagle dog at 3 mg/kg; type: ADME, organism-based, Canis lupus familiaris; conditions: in vivo
[10] = (§1) In vivo inhibition of SFT de novo synthesis in po dosed adult C57BL/6 mouse kidney assessed as reduction in [13C] galactose incorporation into SFT treated with compound for 1 hr prior to intraperitoneal injection of [13C] galactose measured after 5 hrs of compound administration; type: functional
Mus musculus = assay: as §1; type: functional
[11] = In vivo inhibition of SFT de novo synthesis in adult C57BL/6 mouse kidney assessed as reduction in [13C] galactose incorporation into SFT at 3 mg/kg, po via gavage treated with compound for 1 hr prior to intraperitoneal injection of [13C] galactose measured after 5 hrs of compound administration relative to control; type: functional
[12] = molecular target: T4, 2-hydroxyacylsphingosine 1-beta-galactosyltransferase (Mus musculus, UniProt Q64676); assay: Inhibition of mouse UGT8 assessed as redcution in SFT accumulation
T4 sequence (Q64676 whole entry): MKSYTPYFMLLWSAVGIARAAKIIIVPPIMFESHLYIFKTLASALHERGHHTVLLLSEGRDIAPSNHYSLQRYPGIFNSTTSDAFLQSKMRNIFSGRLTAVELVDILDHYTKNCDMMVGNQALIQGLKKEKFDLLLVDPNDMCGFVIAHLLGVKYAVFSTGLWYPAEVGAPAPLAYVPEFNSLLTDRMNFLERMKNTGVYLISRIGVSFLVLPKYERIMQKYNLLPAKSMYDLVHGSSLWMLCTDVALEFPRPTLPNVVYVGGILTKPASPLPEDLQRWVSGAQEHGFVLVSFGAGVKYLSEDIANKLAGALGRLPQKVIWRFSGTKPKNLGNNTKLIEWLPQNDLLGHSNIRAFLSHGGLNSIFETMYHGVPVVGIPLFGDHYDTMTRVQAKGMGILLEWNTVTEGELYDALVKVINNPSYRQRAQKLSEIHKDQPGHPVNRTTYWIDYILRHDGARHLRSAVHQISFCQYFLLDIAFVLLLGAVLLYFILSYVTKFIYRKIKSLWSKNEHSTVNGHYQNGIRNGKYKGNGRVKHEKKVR

IC50 [1]: > 10000 nM
IC50 [2]: 0.2 nM
IC50 [3]: > 10000 nM
logD [4]: 5.09
Kp at 1 h [5]: 0.46
Tmax [6]: 0.83 h
clearance [7]: 6.32 mL/min/kg
Tmax [8]: 1.33 h
bioavailability [9]: 52%
IC50 [12]: 0.3 nM
Structure (SMILES): CNC(=O)c1csc2c(C(F)(F)F)cc(N3CCC(OC(=O)N[C@@H](C)COC(F)(F)F)CC3)nc12
ED50 [10]: 1 mg/kg
inhibition (Mus musculus): Dose-dependent effect
inhibition in vivo at 3 mg/kg [11]: 85%
